Where two headings read alike, the source gives them in different places. *1 amine or outer side, *2 acyl side, *3 side chain or, on linkers, in order; H or OH if unused. Where a SMILES comes first, the peptide text is derived from it. Bridges are numbered along the chain shown (N, C = ends). [ ]: non-standard residue; d: D form. The star is where a group is joined. X47 = CC(C)(C)CCN([C@@H](Cc1ccc(C(F)(F)F)cc1)C(=O)[*:2])[*:1]; hPhe(3-Cl-4-CF3) = N[C@@H](CCc1ccc(C(F)(F)F)c(Cl)c1)C(=O)O; NPrPhe(4-CF3) = CCCN[C@@H](Cc1ccc(C(F)(F)F)cc1)C(=O)O; NMeGly(cPent) = CN[C@H](C(=O)O)C1CCCC1; Pro(4,4-F2) = O=C(O)[C@@H]1CC(F)(F)CN1; Aze(3S-Me) = C[C@H]1CN[C@@H]1C(=O)O; NMeD = CN[C@@H](CC(=O)O)C(=O)O; NMeL = CN[C@@H](CC(C)C)C(=O)O; hPip = O=C(O)[C@@H]1CCCCCN1; Morpholide = C1CN(*)CCO1; NMeA = CN[C@@H](C)C(=O)O; Ac5c = NC1(C(=O)O)CCCC1; Aze = O=C(O)[C@@H]1CCN1; Sar = CNCC(=O)O
Tests used:
[1] = biological target: GDP-bound NRAS wild-type protein (Homo sapiens, UniProt P01111); test: Binding to NRAS by surface plasmon resonance (SPR), Single Cycle Kinetics; details: SPR; for NRAS/KRAS (ratio of KD value for NRAS to KD value for KRAS) / NRAS/KRAS (ratio of KD value with respect to NRAS to KD value with respect to KRAS): GDP-bound NRAS wild-type protein vs GDP-bound KRAS wild-type protein
[2] = test system: human lung cancer strain NCI-H441;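 also: cell proliferation inhibition after four days measured by CellTiter-Glo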
[3] = biological target: GDP-bound HRAS wild-type protein (Homo sapiens, UniProt P01112); test: Binding to HRAS by surface plasmon resonance (SPR), Single Cycle Kinetics; details: SPR; for HRAS/KRAS (ratio of KD value for HRAS to KD value for KRAS) / HRAS/KRAS (ratio of KD value with respect to HRAS to KD value with respect to KRAS): GDP-bound HRAS wild-type protein vs GDP-bound KRAS wild-type protein
Sequence of GDP-bound HRAS wild-type protein (P01112 whole entry): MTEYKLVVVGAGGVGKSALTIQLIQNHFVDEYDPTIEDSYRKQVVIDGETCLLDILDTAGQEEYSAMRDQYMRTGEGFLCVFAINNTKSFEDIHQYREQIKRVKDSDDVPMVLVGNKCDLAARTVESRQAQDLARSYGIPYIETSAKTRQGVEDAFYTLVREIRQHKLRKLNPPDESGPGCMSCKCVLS

Sequence of GDP-bound NRAS wild-type protein (P01111 whole entry): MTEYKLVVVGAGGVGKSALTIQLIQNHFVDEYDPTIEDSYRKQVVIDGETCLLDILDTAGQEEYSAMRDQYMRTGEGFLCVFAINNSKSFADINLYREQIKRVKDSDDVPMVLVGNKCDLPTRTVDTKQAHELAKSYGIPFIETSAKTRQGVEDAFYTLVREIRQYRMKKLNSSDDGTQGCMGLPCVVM

Compound	NRAS/KRAS (ratio of KD value for NRAS to KD value for KRAS) [1]	IC50 [2]	HRAS/KRAS (ratio of KD value for HRAS to KD value for KRAS) [3]	other results
CC[C@H](C)[C@@H]1NC(=O)[C@H](CC(C)C)N(C)C(=O)C[C@@H](C(=O)N2CCOCC2)N(C)C(=O)[C@H](C2CCCC2)N(C)C(=O)C2(CCC2)NC(=O)[C@@H]2[C@@H](OCC3CCCC3)CCN2C(=O)[C@H](CCc2cc(F)c(C(F)(F)F)c(F)c2)NC(=O)CN(C)C(=O)[C@H](Cc2ccc(C(F)(F)F)cc2)N2CCCCC[C@@H](C2=O)N(C)C(=O)CN(C)C1=O [PP1011]	A (a compound having 10 or more and less than 20 is denoted as A)	314 nM	B (a compound having 3 or more and less than 10 is denoted as B)	
CCCN1C(=O)[C@@H]2CCN2C(=O)[C@@H]2CCN2C(=O)[C@H]([C@@H](C)CC)NC(=O)[C@H](CC(C)C)N(C)C(=O)C[C@@H](C(=O)N2CCOCC2)N(C)C(=O)[C@H](C2CCCC2)N(C)C(=O)C2(CCCC2)NC(=O)[C@@H]2CCCN2C(=O)[C@H](CCc2ccc(C(F)(F)F)c(Cl)c2)NC(=O)CN(C)C(=O)[C@@H]1Cc1ccc(C(F)(F)F)cc1 [PP0168] ([NMeL]I[Aze][Aze][NPrPhe(4-CF3)][Sar][hPhe(3-Cl-4-CF3)]P[Ac5c][NMeGly(cPent)][NMeD]-Morpholide; lactam N-11)	C (A compound having a KD ratio of 0.1 or more and less than 3 is denoted as C)	26.6 nM	B (a compound having 3 or more and less than 10 is denoted as B)	
CCO[C@@H]1C[C@H]2C(=O)NC3(CCC3)C(=O)N(C)[C@@H](C3CCCC3)C(=O)N(C)[C@H](C(=O)N(C)C)CC(=O)N(C)[C@@H](CC)C(=O)N[C@@H]([C@@H](C)CC)C(=O)N(C)CC(=O)N(C)[C@H]3CCCCCN(C3=O)[C@@H](Cc3ccc(F)cc3Cl)C(=O)N(C)CC(=O)N[C@@H](CCc3cc(F)c(C(F)(F)F)c(F)c3)C(=O)N2C1 [PP0908]	B (a compound having 3 or more and less than 10 is denoted as B)	38.5 nM	B (a compound having 3 or more and less than 10 is denoted as B)	
CCCN1C(=O)CN(C)C(=O)[C@@H]2CCN2C(=O)[C@H]([C@@H](C)CC)NC(=O)[C@@H]2CCCCCN2C(=O)C[C@@H](C(=O)N2CCOCC2)N(C)C(=O)[C@H](C2CCCC2)N(C)C(=O)C2(CCCC2)NC(=O)[C@@H]2CCCN2C(=O)[C@H](CCc2ccc(C(F)(F)F)c(Cl)c2)NC(=O)CN(C)C(=O)[C@@H]1Cc1ccc(C(F)(F)F)cc1 [PP0302] ([hPip]I[Aze][Sar][NPrPhe(4-CF3)][Sar][hPhe(3-Cl-4-CF3)]P[Ac5c][NMeGly(cPent)][NMeD]-Morpholide; lactam N-11)	B (a compound having 3 or more and less than 10 is denoted as B)	126 nM	C (A compound having a KD ratio of 0.1 or more and less than 3 is denoted as C)	
CCO[C@@H]1C[C@H]2C(=O)NC(C)(C)C(=O)N(C)[C@@H](C3CCCC3)C(=O)N(CC)[C@H](C(=O)N3CCOCC3)CC(=O)N(C)[C@@H](CC(C)C)C(=O)N[C@@H]([C@@H](C)CC)C(=O)N(C)CC(=O)N(C)[C@H]3CCCCCN(C3=O)[C@@H](Cc3ccc(C(F)(F)F)cc3)C(=O)N(C)CC(=O)N[C@@H](CCc3cc(F)c(C(F)(F)F)c(F)c3)C(=O)N2C1 [PP0958]	B (a compound having 3 or more and less than 10 is denoted as B)	1040 nM	B (a compound having 3 or more and less than 10 is denoted as B)	
CC[C@H](C)[C@@H]1NC(=O)[C@H](CC(C)C)N(C)C(=O)C[C@@H](C(=O)N2CCOCC2)N(C)C(=O)[C@H](C2CCCC2)N(C)C(=O)C2(CCCC2)NC(=O)[C@@H]2CCCN2C(=O)[C@H](CCc2ccc(C(F)(F)F)c(Cl)c2)NC(=O)CN(C)C(=O)[C@H](Cc2ccc(C(F)(F)F)cc2)N(CCC(C)(C)C)C(=O)[C@@H]2CCN2C(=O)[C@H](C)N(C)C1=O [PP0113] ([NMeL]I[NMeA][Aze][X47][Sar][hPhe(3-Cl-4-CF3)]P[Ac5c][NMeGly(cPent)][NMeD]-Morpholide; lactam N-11)	C (A compound having a KD ratio of 0.1 or more and less than 3 is denoted as C)	7.1 nM	B (a compound having 3 or more and less than 10 is denoted as B)	
CCCN1C(=O)CN(C)C(=O)[C@@H]2CCN2C(=O)[C@H]([C@@H](C)CC)NC(=O)[C@H](CC(C)C)N(C)C(=O)C[C@@H](C(=O)N2CCOCC2)N(C)C(=O)[C@H](C2CCCC2)N(C)C(=O)C2(CCCC2)NC(=O)[C@@H]2CCN2C(=O)[C@H](CCc2ccc(C(F)(F)F)c(Cl)c2)NC(=O)CN(C)C(=O)[C@@H]1Cc1ccc(C(F)(F)F)cc1 [PP0307] ([NMeL]I[Aze][Sar][NPrPhe(4-CF3)][Sar][hPhe(3-Cl-4-CF3)][Aze][Ac5c][NMeGly(cPent)][NMeD]-Morpholide; lactam N-11)	B (a compound having 3 or more and less than 10 is denoted as B)	205 nM	B (a compound having 3 or more and less than 10 is denoted as B)	
CCCN1C(=O)CN(C)C(=O)[C@@H]2CCN2C(=O)[C@H]([C@@H](C)CC)NC(=O)[C@H](CC(C)C)N(C)C(=O)C[C@@H](C(=O)N(C)C)N(C)C(=O)[C@H](C2CCCC2)N(C)C(=O)C2(CCCC2)NC(=O)[C@@H]2CC(F)(F)CN2C(=O)[C@H](CCc2ccc(C(F)(F)F)c(Cl)c2)NC(=O)CN(C)C(=O)[C@@H]1Cc1ccc(C(F)(F)F)cc1 [PP0431] ([NMeL]I[Aze][Sar][NPrPhe(4-CF3)][Sar][hPhe(3-Cl-4-CF3)][Pro(4,4-F2)][Ac5c][NMeGly(cPent)][NMeD]-NMe2; lactam N-11)		9.9 nM		NRAS/KRAS (ratio of KD value with respect to NRAS to KD value with respect to KRAS) [1]: B (a compound having 3 or more and less than 10 is denoted as B); HRAS/KRAS (ratio of KD value with respect to HRAS to KD value with respect to KRAS) [3]: C (A compound having a KD ratio of 0.1 or more and less than 3 is denoted as C)
CCO[C@@H]1C[C@H]2C(=O)NC3(CCC3)C(=O)N(C)[C@@H](C3CCCC3)C(=O)N(C)[C@H](C(=O)N(C)C)CC(=O)N(C)[C@@H](CC)C(=O)N[C@@H]([C@@H](C)CC)C(=O)N(C)CC(=O)N(C)[C@H]3CCCCCN(C3=O)[C@@H](Cc3ccc(F)c(F)c3)C(=O)N(C)CC(=O)N[C@@H](CCc3cc(F)c(C(F)(F)F)c(F)c3)C(=O)N2C1 [PP0907]	B (a compound having 3 or more and less than 10 is denoted as B)	24.8 nM	B (a compound having 3 or more and less than 10 is denoted as B)	
CCCN1C(=O)CN(C)C(=O)[C@@H]2[C@@H](C)CN2C(=O)[C@H]([C@@H](C)CC)NC(=O)[C@H](CC(C)C)N(C)C(=O)C[C@@H](C(=O)N2CCOCC2)N(C)C(=O)[C@H](C2CCCC2)N(C)C(=O)C2(CCCC2)NC(=O)[C@@H]2CCCN2C(=O)[C@H](CCc2ccc(C(F)(F)F)c(Cl)c2)NC(=O)CN(C)C(=O)[C@@H]1Cc1ccc(C(F)(F)F)cc1 [PP0258] ([NMeL]I[Aze(3S-Me)][Sar][NPrPhe(4-CF3)][Sar][hPhe(3-Cl-4-CF3)]P[Ac5c][NMeGly(cPent)][NMeD]-Morpholide; lactam N-11)	B (a compound having 3 or more and less than 10 is denoted as B)	11.3 nM	C (A compound having a KD ratio of 0.1 or more and less than 3 is denoted as C)	
CCO[C@@H]1C[C@H]2C(=O)NC3(CCC3)C(=O)N(C)[C@@H](C3CCCC3)C(=O)N(C)[C@H](C(=O)N3CCCC3)CC(=O)N(C)[C@@H](CC)C(=O)N[C@@H]([C@@H](C)CC)C(=O)N(C)CC(=O)N(C)[C@H]3C/C=C\CCN(C3=O)[C@@H](CC3CCC(F)(F)CC3)C(=O)N(C)CC(=O)N[C@@H](CCc3cc(F)c(C(F)(F)F)c(F)c3)C(=O)N2C1 [PP1442]		48.3 nM		NRAS/KRAS (ratio of KD value for NRAS to KD value for KRAS) ([1]; KD ratio class): A (a compound having 10 or more and less than 20 is denoted as A); HRAS/KRAS (ratio of KD value for HRAS to KD value for KRAS) ([3]; KD ratio class): A (a compound having 10 or more and less than 20 is denoted as A)
CCO[C@@H]1C[C@H]2C(=O)NC3(CCC3)C(=O)N(C)[C@@H](C3CCCC3)C(=O)N(C)[C@H](C(=O)N(CC)CC)CC(=O)N(C)[C@@H](CC(C)C)C(=O)N[C@@H]([C@@H](C)CC)C(=O)N(C)CC(=O)N(C)[C@H]3C/C=C\CCN(C3=O)[C@@H](Cc3ccc(C)cc3)C(=O)N(C)CC(=O)N[C@@H](CCc3ccc(C(F)(F)F)c(OC)c3)C(=O)N2C1 [PP1887]				NRAS/KRAS (KD ratio) ([1]; ratio of KD for GDP-bound NRAS wild-type protein to KD for KRAS): A (a compound having 10 or more and less than 20 is denoted as A); IC50 ([2]; read-out: NCI-H441 IC50, NCI-H441 cell proliferation, 4 days, CellTiter-Glo): 19.2 nM; HRAS/KRAS (KD ratio) ([3]; ratio of KD for GDP-bound HRAS wild-type protein to KD for KRAS): B (a compound having 3 or more and less than 10 is denoted as B)
CC[C@H](C)[C@@H]1NC(=O)[C@H](CC(C)C)N(C)C(=O)C[C@@H](C(=O)N(C)C)N(C)C(=O)[C@@H](C2CCCC2)N(C)C(=O)C2(CCCC2)NC(=O)[C@@H]2CCCN2C(=O)[C@H](CCc2ccc(C(F)(F)F)c(Cl)c2)NC(=O)CN(C)C(=O)[C@H](Cc2ccc(C(F)(F)F)cc2)N2CC/C=C(/C)C[C@@H](C2=O)N(C)C(=O)CN(C)C1=O [PP0617]		159 nM		NRAS/KRAS (ratio of KD value with respect to NRAS to KD value with respect to KRAS) [1]: B (a compound having 3 or more and less than 10 is denoted as B); HRAS/KRAS (ratio of KD value with respect to HRAS to KD value with respect to KRAS) [3]: B (a compound having 3 or more and less than 10 is denoted as B)
